Measured values: US20020055639A1, “Pyrazole derivatives as herbicides” (priority 1997, published 2002)

Tests used:
Format in all cases: in vivo
Design in all cases: key: 1=total damage; 9=no action; Ratings of from 1 to 4 (especially from 1 to 3) indicate good to very good herbicidal action
[1] = system: Sinapis; assay: Pre-emergence herbicidal action (Example B1); settings: 2000 g a.i./ha, sprayed immediately after sowing, evaluated after 3 weeks, scale of nine ratings
Description: (§1) Monocotyledonous and dicotyledonous test plants are sown in standard soil in plastics pots. Immediately after sowing, the test compounds, each in the form of an aqueous suspension or emulsion prepared from a 25% emulsifiable concentrate (Example F1, c) in WO 97/34485, pages 9 and 10), are applied by spraying at a rate of application of 2000 g of active ingredient/ha (500 liters water/ha). The test plants are then grown in a greenhouse under optimum conditions. After 3 weeks' test duration, the test is evaluated in accordance with a scale of nine ratings (1=total damage, 9=no action). Ratings of from 1 to 4 (especially from 1 to 3) indicate good to very good herbicidal action.
(§2) Test plants: Avena, Setaria, Sinapis, Stellaria

[2] = system: Avena; assay: Pre-emergence herbicidal action (Example B1); settings: 2000 g a.i./ha, sprayed immediately after sowing, evaluated after 3 weeks, scale of nine ratings
Description: as §1, §2

[3] = system: Stellaria; assay: Pre-emergence herbicidal action (Example B1); settings: 2000 g a.i./ha, sprayed immediately after sowing, evaluated after 3 weeks, scale of nine ratings
Description: as §1, §2

[4] = system: Setaria; assay: Pre-emergence herbicidal action (Example B1); settings: 2000 g a.i./ha, sprayed immediately after sowing, evaluated after 3 weeks, scale of nine ratings
Description: as §1, §2

[5] = system: Sinapis; assay: Post-emergence herbicidal action (Example B2); settings: 2000 g a.i./ha, sprayed at 4- to 6-leaf stage, evaluated after approximately 18 days, scale of nine ratings
Description: (§3) Monocotyledonous and dicotyledonous test plants are grown in a greenhouse in plastics pots containing standard soil and at the 4- to 6-leaf stage are sprayed with an aqueous suspension or emulsion of the test substances of formula I, prepared from a 25% emulsifiable concentrate (Example F1, c) in WO 97/34485, pages 9 and 10), at a rate of application corresponding to 2000 g of active ingredient/ha (500 liters water/ha). The test plants are then grown on in the greenhouse under optimum conditions. After approximately 18 days' test duration, the test is evaluated in accordance with a scale of nine ratings (1=total damage, 9=no action). Ratings of from 1 to 4 (especially from 1 to 3) indicate good to very good herbicidal action.
as §2

[6] = system: Avena; assay: Post-emergence herbicidal action (Example B2); settings: 2000 g a.i./ha, sprayed at 4- to 6-leaf stage, evaluated after approximately 18 days, scale of nine ratings
Description: as §3, §2

[7] = system: Stellaria; assay: Post-emergence herbicidal action (Example B2); settings: 2000 g a.i./ha, sprayed at 4- to 6-leaf stage, evaluated after approximately 18 days, scale of nine ratings
Description: as §3, §2

[8] = system: Setaria; assay: Post-emergence herbicidal action (Example B2); settings: 2000 g a.i./ha, sprayed at 4- to 6-leaf stage, evaluated after approximately 18 days, scale of nine ratings
Description: as §3, §2

| SMILES | Pre-emergence action: Sinapis (rating) [1] | Pre-emergence action: Avena (rating) [2] | Pre-emergence action: Stellaria (rating) [3] | Pre-emergence action: Setaria (rating) [4] | Post-emergence action: Sinapis (rating) [5] | Post-emergence action: Avena (rating) [6] | Post-emergence action: Stellaria (rating) [7] | Post-emergence action: Setaria (rating) [8] |
| --- | --- | --- | --- | --- | --- | --- | --- | --- |
| Cn1nc(-c2ccc(Cl)c(=O)n2C)c(Cl)c1OC(F)F [Example 1.001] | 1 | 1 | 1 | 1 | 1 | 1 | 1 | 1 |
| Cn1nc(-c2c(F)cc(Cl)c(=O)n2C)c(Cl)c1OC(F)F [Example 1.002] | 1 | 1 | 1 | 1 | 1 | 1 | 1 | 1 |
| Cn1nc(-c2c(Cl)cc(Cl)c(=O)n2C)c(Cl)c1OC(F)F [Example 1.003] | 1 | 1 | 1 | 1 | 1 | 1 | 1 | 1 |
| CCn1c(-c2nn(C)c(OC(F)F)c2Cl)c(F)cc(Cl)c1=O [Example 1.004] | 1 | 1 | 1 | 1 | 1 | 1 | 1 | 2 |
| CCCCn1c(-c2nn(C)c(OC(F)F)c2Cl)c(F)cc(Cl)c1=O [Example 1.010] | 1 | 1 | 1 | 1 | 1 | 1 | 1 | 1 |
| C=CCn1c(-c2nn(C)c(OC(F)F)c2Cl)c(F)cc(Cl)c1=O [Example 1.080] | 1 | 1 | 1 | 1 | 1 | 1 | 1 | 1 |
| C#CCn1c(-c2nn(C)c(OC(F)F)c2Cl)c(F)cc(Cl)c1=O [Example 1.100] | 1 | 1 | 1 | 1 | 1 | 1 | 1 | 1 |
| Cn1nc(-c2c(F)cc(Cl)c(=O)n2CCc2ccccc2)c(Cl)c1OC(F)F [Example 1.105] | 1 | 1 | 1 | 1 | 1 | 1 | 1 | 2 |
| Cn1nc(-c2c(F)cc(Cl)c(=O)n2CCCc2ccccc2)c(Cl)c1OC(F)F [Example 1.106] | 1 | 2 | 1 | 1 | 1 | 3 | 1 | 3 |
| Cn1nc(-c2c(F)cc(Cl)c(=O)n2Cc2ccccc2)c(Cl)c1OC(F)F [Example 1.111] | 1 | 2 | 1 | 1 | 1 | 2 | 2 | 1 |
| Cn1nc(-c2c(F)cc(Cl)c(=O)n2CC#N)c(Cl)c1OC(F)F [Example 1.126] | 1 | 1 | 1 | 1 | 1 | 1 | 1 | 1 |
| CSCn1c(-c2nn(C)c(OC(F)F)c2Cl)c(F)cc(Cl)c1=O [Example 1.147] | 1 | 1 | 1 | 1 | 1 | 1 | 1 | 1 |
| Cn1nc(-c2c(F)cc(Cl)c(=O)n2C[S+](C)[O-])c(Cl)c1OC(F)F (centres unmarked) [Example 1.150] | 1 | 1 | 1 | 1 | 1 | 1 | 1 | 1 |
| Cn1nc(-c2c(Cl)cc(Cl)c(=O)n2CS(C)(=O)=O)c(Cl)c1OC(F)F [Example 1.152] | 1 | 1 | 1 | 1 | 1 | 1 | 1 | 1 |
| Cn1nc(-c2c(F)cc(Cl)c(=O)n2CS(C)(=O)=O)c(Cl)c1OC(F)F [Example 1.153] | 1 | 1 | 1 | 1 | 1 | 1 | 1 | 1 |
| CCSCCn1c(-c2nn(C)c(OC(F)F)c2Cl)c(F)cc(Cl)c1=O [Example 1.156] | 1 | 1 | 1 | 1 | 1 | 1 | 1 | 1 |
| CCS(=O)(=O)CCn1c(-c2nn(C)c(OC(F)F)c2Cl)c(F)cc(Cl)c1=O [Example 1.168] | 1 | 1 | 1 | 1 | 1 | 1 | 1 | 1 |
| CCOC(=O)Cn1c(-c2nn(C)c(OC(F)F)c2Cl)c(F)cc(Cl)c1=O [Example 1.181] | 1 | 1 | 1 | 1 | 1 | 1 | 1 | 1 |
| Cn1nc(-c2c(F)cc(Cl)c(=O)n2CC(=O)OCc2ccccc2)c(Cl)c1OC(F)F [Example 1.195] | 1 | 3 | 1 | 1 | 1 | 1 | 1 | 1 |
